Patent publication US11471394B2, “Oral care compositions containing deoxy sugar antimetabolites” (Colgate-Palmolive Company, priority 2013, dated 2022)

What was measured:
Type in all cases: cell-based
[1] = system: five representative oral bacterial species: A. viscosus, L. casei, S. oralis, V. parvula and F. nucleatum; experiment: Example 1: bacterial growth in the supernatant media of healthy biofilm model (absorbance); settings: for % bacterial reduction (A): compound 0.01 wt. %, 48 hours, reduction in absorbance of supernatant media relative to disks treated with media alone
Experimental: (§1) 0.5″ Ca^2+-deficient hydroxyapatite (HAP) disks were coated with UV-sterilized human saliva overnight.
(§2) After 1 hour, excess treatment was removed by aspiration and disks were inoculated with 1 ml of bacteria from a continuous culture system at an OD(600) of about 0.2. The continuous culture system was maintained for approximately three months at 37° C. and contained five representative oral bacterial species: A. viscosus, L. casei, S. oralis, V. parvula and F. nucleatum. Previous work has shown this mix to form repeatable biofilms that can serve as a representation of the more complex mix of 500-700 bacterial species found in dental plaque.
(§3) The inoculated scHAP disks were incubated for 48 hours at 37° C. to allow a biofilm to form on them. After 48 hours of biofilm formation, disks were transferred to test tubes containing 1 ml of 0.25% trypsin solution. Disks were incubated at 37° C. with shaking for 45 minutes. The tubes were briefly vortexed to resuspend the bacteria, and the supernatants were then transferred to a fresh 24 well plate. Plates were […] for 2 minutes to pellet any residual HAP flakes and the supernatants were removed to fresh plates so that their absorbance could be measured at 610 nm. All samples were tested in triplicate and the average of the three wells was determined.
In addition to the absorbance of the trypsin-digested resuspended bacterial solution, similar absorbance measurements were also taken of the final supernatant media after the biofilms were allowed to grow for 48 hours.
The effect of 2-deoxy-D-glucose on bacterial growth in the supernatant media in which the biofilms were grown is shown in the table below.

[2] = system: biofilm of five representative oral bacterial species: A. viscosus, L. casei, S. oralis, V. parvula and F. nucleatum; experiment: Example 1: healthy biofilm formation on saliva-coated HAP disks (absorbance at 610 nm after trypsin); settings: for % biofilm inhibition (B) / % biofilm inhibition efficiency (C): compound 0.01 wt. %; for % biofilm inhibition (B): 48 hours biofilm, reduction in absorbance relative to disks treated with media alone; for % biofilm inhibition efficiency (C): C=B/A×100%; for biofilm inhibition (in words): 0.01 wt. %, Example 1
Experimental: as §1, §2, §3

[3] = system: pathogenic biofilm spiked with P. gingivalis; experiment: Example 3: pathogenic biofilm model spiked with P. gingivalis; settings: overall conclusion, no data given
Experimental: A similar experiment was conducted using a pathogenic biofilm model. Biofilms were inoculated as above for the healthy biofilms. Initial bacterial attachment and biofilm formation was allowed to proceed for 4 hours. After the initial 4 hours, each biofilm was spiked with 100 μL of an overnight culture of P. gingivalis. Biofilms were then allowed to grow for another 48 hours prior to trypsin treatment, and absorbance measurements were taken as described above.

[4] = system: Actinomyces naeslundii (ATCC 43146), Lactobacillus casei (ATCC 334), Streptococcus oralis (ATCC 35037), Veillonella parvula (ATCC 17745) and Fusobacterium …; experiment: Example 2: planktonic growth (OD600) in healthy biofilm model; settings: for % planktonic growth inhibition: compound 0.01 wt. %, 24 hours, OD600
Experimental: (§4) A similar test protocol to Example 1 was performed and tested for its effect in the inhibition of planktonic growth and inhibition of biofilm formation
(§5) The species used for biofilm formation were: Actinomyces naeslundii (ATCC 43146). Lactobacillus casei (ATCC 334), Streptococcus oralis (ATCC 35037), Veillonella parvula (ATCC 17745) and Fusobacterium nucleatum (ATCC 10953). Strains were grown under anaerobic conditions at 37° C. for 72 hours. All the bacteria were grown on an anaerobic blood agar.
(§6) The formula for the anaerobic blood agar was as follows: 52 g/l Brain Heart Infusion Agar (DIFCO), and after autoclaving the following products are added: 1 ml/l baemin from a solution 5 mg/ml, 1 ml/l of vitamin K1 from a solution 100 μg/ml and 50 ml of horse blood. A 24 well microtiter for cell culture (Nalgene Nunc International, Denmark) was used to generate in vitro dental biofilms.
(§7) Wells were filled with 800 μl of the mucin growth medium (MGM), a modification of the medium used by Kinniment et al. (Kinniment, S. L., Wimpenny. J. W., Adams, D., and Marsh, P. D. (1996) Development of a steady-state oral microbial biofilm community using the constant-depth film fermenter. Microbiology 142 (Pt 3): 631-638) which presents a high concentration of proteins: 2.5 g/l mucin, 5 g/l Heart Infusion Broth (DIFCO), 2.0 g/l sodium bicarbonate, 1.0 g/l yeast extract and 0.1 g/l cysteine and 4 ml resazurin from a solution 25 mg/100 ml.
The pH is adjusted to 7.4 prior to autoclaving. After autoclaving the following products was added: 1 ml/l haemin from a solution 5 mg/ml and 1 mL/l of vitamin K1 from a solution 100 μg/ml. Sterile hydroxyapatite discs of 7 mm×1.8 mm (Clarkson Inc., USA) was later placed into the wells. […]
(§8) After 24 hours planktonic phase was saved to measure growth at OD600 and hydroxyapatite disks were washed with sterile PBS and stained with safranine 0.1% for 15 minutes. […] Absorbance at 492 nm measures the amount of safranine retained by the biofilm.

[5] = system: biofilm of Actinomyces naeslundii (ATCC 43146), Lactobacillus casei (ATCC 334), Streptococcus oralis (ATCC 35037), Veillonella parvula (ATCC 17745) and …; experiment: Example 2: biofilm formation on hydroxyapatite discs (safranine staining, absorbance at 492 nm); settings: for biofilm inhibition (in words): 0.01 wt. %, Example 2; for % biofilm inhibition: compound 0.01 wt. %, 24 hours, safranine, absorbance at 492 nm
Experimental: as §4, §5, §6, §7
The pH is adjusted to 7.4 prior to autoclaving. After autoclaving the following products was added: 1 ml/l haemin from a solution 5 mg/ml and 1 mL/l of vitamin K1 from a solution 100 μg/ml. Sterile hydroxyapatite discs of 7 mm×1.8 mm (Clarkson Inc., USA) was later placed into the wells. In order to form the acquired pellicle the discs were allowed to stay at least 60 hours in contact with the medium under anaerobic conditions prior inoculation. This period of pre-incubation allows checking for possible contaminations and adjusts the final pH to 7.5.
Each of the strains grown on agar was resuspended in MGM medium until reach a turbidity of a McFarlan 3 (approximately 10^8 CFU/ml). Finally, 1 ml of each suspension from the different strains was mixed and 50 μl of this suspension was added into each of the wells in the microtiter plate. Microtiter plates were incubated under anaerobic conditions at 37° C. in an anaerobic chamber. A control of growth was performed in parallel. […]
as §8

Compound | % bacterial reduction (A) [1] | % biofilm inhibition (B) [2] | % biofilm inhibition efficiency (C) [2] | biofilm inhibition (in words) [2] | inhibition of oral biofilm formation (in words) [3] | bacterial reduction (in words) ([1]; 0.01 wt. %, Example 1) | planktonic growth inhibition (in words) ([4]; 0.01 wt. %, Example 2) | % planktonic growth inhibition [4] | biofilm inhibition (in words) [5] | % biofilm inhibition [5]
CCCCCCCCCCCCCCCC[n+]1ccccc1 [CPC, cetylpyridinium chloride] | 65.44% | – | – | – | – | – | – | – | – | –
Benzalkonium chloride [reference compound] | 88.21% | 52.58% | 59.61% | – | – | – | – | – | – | –
O=C[C@H](F)[C@@H](O)[C@H](O)[C@H](O)CO [2-fluoro-2-deoxy-D-glucose] | 0.00% | 46.50% | >>>1000% | effective and efficient inhibitor of biofilm formation | very good inhibitors of oral biofilm formation | – | – | – | – | –
Cl.NCC(O)CCC(N)C(=O)O (racemic) [DL-5-hydroxylysine HCl, reference compound] | 21.45% | 5.85% | 27.27% | negligible biofilm inhibition | – | significant bacterial reduction | no planktonic growth inhibition | 0.00% | minimal biofilm inhibition | 5.91%
Oc1cc(Cl)ccc1Oc1ccc(Cl)cc1Cl [Triclosan] | 85.63% | – | – | – | – | – | – | – | – | –
N[C@H](C=O)[C@@H](O)[C@H](O)[C@H](O)CO [D-mannosamine, 2-amino-2-deoxy-D-mannose] | – | – | – | – | – | – | – | 0.00% | effective inhibition of biofilm formation | 34.01%
C[C@@H](O)[C@@H](O)[C@H](O)[C@@H](O)C=O [6-deoxy-D-glucose] | 1.54% | 25.33% | 1644.81% | effective and efficient inhibitor of biofilm formation | very good inhibitors of oral biofilm formation | – | – | – | – | –
O=CC[C@@H](O)[C@H](O)[C@H](O)CO [2-deoxy-D-glucose] | 9.81% | 30.54% | 311.31% | – | – | – | – | – | – | –
